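Briefly, cells in 96-well plates were exposed to five compound concentrations for 48 h, and endpoints were estimated by linear interpolation. At the TGI there is no net growth.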
Columns and labels:
Assay in all cases: DTP human tumour cell line panel, 48 h
BT-549 breast = tested on: BT-549 breast
HCC-2998 colon = tested on: HCC-2998 colon
IGROV1 ovarian = tested on: IGROV1 ovarian
MDA-N = tested on: MDA-N
MOLT-4 leukemia = tested on: MOLT-4 leukemia
RXF 393 renal = tested on: RXF 393 renal
SF-268 CNS = tested on: SF-268 CNS
SF-539 CNS = tested on: SF-539 CNS
SNB-75 CNS = tested on: SNB-75 CNS
U251 CNS = tested on: U251 CNS
M14 melanoma = tested on: M14 melanoma

Row | Structure (SMILES) | TGI (BT-549 breast) [µM] | TGI (HCC-2998 colon) [µM] | TGI (IGROV1 ovarian) [µM] | TGI (MDA-N) [µM] | TGI (MOLT-4 leukemia) [µM] | TGI (RXF 393 renal) [µM] | TGI (SF-268 CNS) [µM] | TGI (SF-539 CNS) [µM] | TGI (SNB-75 CNS) [µM] | TGI (U251 CNS) [µM] | TGI (M14 melanoma) [µM]
1 | CCCCCCCCOC1C(O)C(O)C(O)C(O)C12CO2 (centres undefined) | > 100 | > 100 | > 100 | > 100 | > 100 | > 100 | > 100 | > 100 | > 100 | > 100 | 
2 | CC(=O)OCCCOCn1c(Cc2ccccc2)c(C)c(=O)[nH]c1=O | > 100 | > 100 | > 100 | > 100 | > 100 | > 100 | > 100 | > 100 | > 100 | > 100 | > 100
3 | CC(O)c1cc2c(s1)C(=O)c1sccc1C2=O (centres undefined) | 0.175 | 0.402 | 0.725 | 0.0367 | > 100 | 0.351 | 0.61 |  | 0.218 |  | 0.0494
4 | COC(=O)CCC(=O)NC1=C(Nc2ccc(OC)cc2)C(=O)c2ccccc2C1=O | 29 | 35.7 | 26 | 3.44 | 65.8 | 67 | 98.2 | 27.9 | 21.2 | 57.5 | 19.7
5 | CC[C@H](O)[C@H](C)C=C1SCCCS1 | > 100 | > 100 | > 100 | > 100 | > 100 | > 100 | > 100 |  | > 100 | > 100 | > 100
6 | Cc1c(Cl)nc(Nc2nc3ccccc3[nH]2)nc1Cl | > 100 |  | > 100 | > 100 | > 100 | > 100 | > 100 | > 100 | > 100 | > 100 | > 100
7 | CCSc1sc(=Nc2ccc(N=c3sc(C)c(SC)s3)cc2)sc1-c1ccc(C)cc1 | > 100 | > 100 | > 100 | > 100 | > 100 | > 100 | > 100 | > 100 | > 100 | > 100 | > 100
8 | CCCN(CCCC(NC(C)=O)C(=O)NCc1ccccc1)C(=O)N(CCCl)N=O (centres undefined) | 54.1 | 26.4 | 57.3 | > 100 | 28 | 35 | 42.6 | 5.95 | 39.8 | 20.1 | 31.7
9 | O=S(=O)(O)c1cc(O)c2c(N=Cc3ccccc3O)cc(S(=O)(=O)O)cc2c1 | > 100 | > 100 | > 100 | > 100 | > 100 | > 100 | > 100 | > 100 | > 100 | > 100 | > 100
10 | Cc1ccsc1/C=N/Nc1nc2ccccc2s1 | > 100 | > 100 | 23.5 | > 100 | 31.3 | 29 | 66.7 |  | 35.6 | 28.3 | > 100
